Measurements: ChEMBL document CHEMBL1201862, “PubChem BioAssay data set” (2004)
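96-well plates; 48 h exposure; 5 concentrations. Endpoints by linear interpolation between flanking doses. Not reached: highest tested concentration assigned. GI50 = concentration required for 50% inhibition of growth.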 Calls of active or inactive are those of the source. Cut-off read from the data, not from the text of the source: active = GI50 up to about 1.1 µM and inactive = higher.

Columns and labels:
Assay in all cases: NCI-60 cell line screen, 48 h
A498 = test system: A498
BT-549 = test system: BT-549
CAKI-1 = test system: CAKI-1
CCRF-CEM = test system: CCRF-CEM
DU-145 = test system: DU-145
HOP-92 = test system: HOP-92
Hs-578T = test system: Hs-578T
NCI-H226 = test system: NCI-H226
NCI-H460 = test system: NCI-H460
NCI/ADR-RES = test system: NCI/ADR-RES
OVCAR-3 = test system: OVCAR-3
OVCAR-4 = test system: OVCAR-4
SF-268 = test system: SF-268
SF-539 = test system: SF-539
SNB-75 = test system: SNB-75
TK-10 = test system: TK-10
UO-31 = test system: UO-31
HCC 2998 = test system: HCC 2998
Malme-3M = test system: Malme-3M
SR = test system: SR

Measured: GI50

O=c1c2ccccc2nc(-c2ccc(Cl)cc2)n1O
inactive: A498 53.7 µM | BT-549 27.3 µM | CAKI-1 15.2 µM | CCRF-CEM 14.1 µM | DU-145 89.9 µM | HOP-92 15.6 µM | Hs-578T 76 µM | NCI-H226 15.5 µM | NCI-H460 11.1 µM | NCI/ADR-RES 19.6 µM | OVCAR-3 40.2 µM | OVCAR-4 37 µM | SF-268 18.8 µM | SF-539 23.8 µM | SNB-75 38.2 µM | TK-10 21.1 µM | UO-31 2.2 µM

CC1C2(C)OC(=N)C(C#N)(C(c3ccccc3)O2)C1(C#N)C#N (stereo unspecified)
inactive: A498 42.1 µM | BT-549 42.3 µM | CAKI-1 13.7 µM | CCRF-CEM 17.6 µM | DU-145 31.3 µM | HCC 2998 10.8 µM | HOP-92 12.6 µM | Hs-578T 24.6 µM | Malme-3M 28.3 µM | NCI-H226 > 100 µM | NCI-H460 12.6 µM | NCI/ADR-RES 42.9 µM | OVCAR-3 15.1 µM | SF-268 25.5 µM | SF-539 20.3 µM | SNB-75 > 100 µM | TK-10 36 µM | UO-31 39.8 µM

COc1cc(/C=C2\NC(=O)N(/C=C3\C(=O)Oc4ccccc4C3=O)C2=O)ccc1O
inactive: A498 42.1 µM | BT-549 43 µM | CAKI-1 59.8 µM | CCRF-CEM 32.7 µM | DU-145 87.1 µM | HCC 2998 41.2 µM | HOP-92 > 100 µM | Hs-578T 33.6 µM | NCI-H226 > 100 µM | NCI-H460 > 100 µM | NCI/ADR-RES > 100 µM | OVCAR-4 91.8 µM | SF-268 57.1 µM | SF-539 63.1 µM | SNB-75 13.8 µM | TK-10 > 100 µM | UO-31 44.4 µM

Cc1ccc(C(=O)Oc2ccc(/C=C3\CCC/C(=C\c4ccc(OC(=O)c5ccc(C)cc5)cc4)C3=O)cc2)cc1
inactive: BT-549 > 100 µM | CAKI-1 > 100 µM | CCRF-CEM > 100 µM | DU-145 > 100 µM | HCC 2998 > 100 µM | HOP-92 > 100 µM | Hs-578T > 100 µM | NCI-H460 > 100 µM | NCI/ADR-RES > 100 µM | OVCAR-3 > 100 µM | OVCAR-4 > 100 µM | SF-268 > 100 µM | SF-539 > 100 µM | SNB-75 79.8 µM | SR > 100 µM | TK-10 > 100 µM | UO-31 > 100 µM

OC1CCC(COC(c2ccccc2)(c2ccccc2)c2ccccc2)O1 (stereo unspecified)
inactive: A498 20.2 µM | BT-549 23.8 µM | CAKI-1 17.1 µM | CCRF-CEM 14.2 µM | DU-145 20.8 µM | HCC 2998 16.4 µM | Hs-578T 16.6 µM | Malme-3M 17.9 µM | NCI-H226 24.2 µM | NCI-H460 21 µM | NCI/ADR-RES 17.7 µM | OVCAR-3 18.4 µM | SF-268 16.9 µM | SF-539 17.3 µM | SNB-75 13.4 µM | SR > 10 µM | TK-10 > 10 µM | UO-31 17.3 µM

N/C(COc1ccc(Cl)cc1)=N\NC(=O)c1ccncc1
inactive: A498 57.9 µM | BT-549 > 100 µM | CAKI-1 > 100 µM | CCRF-CEM 51.1 µM | DU-145 > 100 µM | HCC 2998 > 100 µM | HOP-92 58.9 µM | Hs-578T > 100 µM | Malme-3M > 100 µM | NCI-H460 63.5 µM | NCI/ADR-RES 49.9 µM | OVCAR-3 > 100 µM | OVCAR-4 > 100 µM | SF-268 > 100 µM | SF-539 > 100 µM | SNB-75 30.3 µM | TK-10 > 100 µM

CC(C)C/N=C(\N)N=C(N)N
inactive: BT-549 > 100 µM | DU-145 > 100 µM | HCC 2998 > 100 µM | HOP-92 > 100 µM | Hs-578T > 100 µM | Malme-3M > 100 µM | NCI-H226 > 100 µM | NCI-H460 > 100 µM | NCI/ADR-RES > 100 µM | OVCAR-3 > 100 µM | OVCAR-4 > 100 µM | SF-268 > 100 µM | SF-539 > 100 µM | SNB-75 > 100 µM | SR > 100 µM | TK-10 > 100 µM | UO-31 > 100 µM

C=C1[C@@H](OC(C)=O)/C=C/C2C3C(=O)[C@@](C)(OC(C)=O)[C@H]([C@H](OC(C)=O)[C@]4(O)[C@@H](C)C(=O)O[C@H]4[C@H]1Cl)[C@@]23C (stereo partly specified)
inactive: A498 > 100 µM | BT-549 > 100 µM | CAKI-1 > 100 µM | CCRF-CEM > 100 µM | DU-145 > 100 µM | HCC 2998 > 100 µM | HOP-92 > 100 µM | Hs-578T > 100 µM | Malme-3M > 100 µM | NCI-H226 > 100 µM | NCI-H460 > 100 µM | NCI/ADR-RES > 100 µM | OVCAR-3 > 100 µM | OVCAR-4 > 100 µM | SF-268 > 100 µM | SNB-75 > 100 µM | TK-10 > 100 µM | UO-31 > 100 µM

COc1ccc(-c2c(C#N)c(-c3ccccc3)n(NS(=O)(=O)c3ccccc3)c(=O)c2C#N)cc1
inactive: A498 > 100 µM | BT-549 > 100 µM | CAKI-1 > 100 µM | CCRF-CEM 36.9 µM | HCC 2998 81.5 µM | HOP-92 26.2 µM | Hs-578T 41.6 µM | Malme-3M 41.6 µM | NCI-H226 > 100 µM | NCI-H460 > 100 µM | NCI/ADR-RES 53.3 µM | OVCAR-4 > 100 µM | SF-268 97.3 µM | SF-539 90.6 µM | SNB-75 50.8 µM | TK-10 > 100 µM

CC1CC(OP(=O)(OCc2ccccc2)OCc2ccccc2)[C@@H](OCc2ccccc2)C(OCc2ccccc2)C1OCc1ccccc1 (stereo partly specified)
inactive: BT-549 79.3 µM | CAKI-1 > 100 µM | CCRF-CEM > 100 µM | DU-145 > 100 µM | HCC 2998 > 100 µM | Hs-578T 79.8 µM | Malme-3M 57.5 µM | NCI-H226 > 100 µM | NCI-H460 34.3 µM | NCI/ADR-RES > 100 µM | OVCAR-4 > 100 µM | SF-268 62.7 µM | SF-539 > 100 µM | SNB-75 39.5 µM | SR > 100 µM | TK-10 22.2 µM | UO-31 15.5 µM

Oc1[nH]c(Nc2ccc(F)c(Cl)c2)nc2ncnc1-2
inactive: A498 > 100 µM | BT-549 > 100 µM | CAKI-1 > 100 µM | CCRF-CEM > 100 µM | DU-145 > 100 µM | HCC 2998 > 100 µM | HOP-92 > 100 µM | Hs-578T 29.6 µM | Malme-3M > 100 µM | NCI-H226 > 100 µM | NCI-H460 > 100 µM | NCI/ADR-RES > 100 µM | OVCAR-3 > 100 µM | OVCAR-4 > 100 µM | SF-268 > 100 µM | SF-539 > 100 µM | SNB-75 25.9 µM | TK-10 > 100 µM | UO-31 > 100 µM
